Read-outs that look alike come from different tables or passages of the source.
System: MCF-7 cells
Experiment: In vitro test of cell activity (MCF-7 cells, insulin stimulation, ELISA-One fluorescence)
Format: cell-based
Settings: Homo sapiens, MCF7, MCF-7 cells; for inhibition at 0.5 µM: conc. 0.5 μM; for inhibition at 0.25 µM: conc. 0.25 μM; for inhibition at 1 µM: conc. 1 μM
Method in brief: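 MCF-7 cells, seeded at 2.5×10^4/well in 10% FBS medium, were given compound in serum-free medium for 2 h at one concentration (screen) or a series (IC50). Insulin stimulation followed at […] final for 30 min; lysates assayed by ELISA-One sandwich immunoassay with fluorescence read-out.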

Row | Compound | inhibition at 0.5 µM (read-out: % inhibition AKT) | inhibition at 0.5 µM (read-out: % inhibition p70s6k) | IC50 (read-out: IC50 p-AKT) | IC50 (read-out: IC50 p-p70S6K) | other results
1 | COc1ncc(-c2ccc3nc(C)cc(=O)n3c2)cc1NS(=O)(=O)c1ccccc1F [compound 230] | 43.5% | 8.8% | – | – | –
2 | COc1ncc(-c2ccc3ncc(Cl)c(=O)n3c2)cc1NS(=O)(=O)c1cnc(N)s1 [compound 161] | – | – | 50 to 100 nM | > 250 nM | inhibition at 0.25 µM (read-out: % inhibition AKT): 79.5%; inhibition at 0.25 µM (read-out: % inhibition p70s6k): 41%
3 | COCOc1cnc2ccc(-c3cnc(OC)c(NS(=O)(=O)c4ccc(F)cc4F)c3)cn2c1=O [compound 179] | – | – | ≤ 50 nM | ≤ 50 nM | –
4 | COc1ncc(-c2ccc3nccc(=O)n3n2)cc1NS(=O)(=O)c1c(F)cccc1F [compound 73] | 40.5% | -2.1% | – | – | –
5 | COCCNc1cnc2ccc(-c3cnc(OC)c(NS(=O)(=O)c4sc(C)nc4C)c3)cn2c1=O [compound 99] | – | – | ≤ 50 nM | – | –
6 | COCCOc1cnc2ccc(-c3cnc(OC)c(NS(=O)(=O)c4ccc(C)nc4C)c3)cn2c1=O [compound 192] | – | – | ≤ 50 nM | – | –
7 | COc1ncc(-c2cn3c(=O)ccnc3cn2)cc1NS(=O)(=O)c1c(F)cccc1F [compound 46] | 60.3% | 13.3% | – | – | –
8 | COc1ncc(-c2ccc3ncc(N)c(=O)n3c2)cc1NS(=O)(=O)c1ccc(F)cc1C [compound 89] | 93% | 88.1% | ≤ 50 nM | 100 to 250 nM | –
9 | COc1ncc(-c2ccc3ncc(OCCCF)c(=O)n3c2)cc1NS(=O)(=O)c1sc(C)nc1C [compound 201] | – | – | ≤ 50 nM | – | –
10 | COc1ncc(-c2ccc3ncc(OC)c(=O)n3c2)cc1NS(=O)(=O)c1sccc1C [compound 110] | – | – | 50 to 100 nM | – | –
11 | COc1ncc(-c2ccc3nccc(=O)n3n2)cc1NS(=O)(=O)c1ccccc1F [compound 72] | 51.1% | 10.2% | – | – | –
12 | COc1ncc(-c2ccc3ncc(OCCOC(C)C)c(=O)n3c2)cc1NS(=O)(=O)c1sc(C)nc1C [compound 194] | – | – | ≤ 50 nM | – | –
13 | COCCOc1cnc2ccc(-c3cnc(OC)c(NS(=O)(=O)c4ccc(OC)nc4C)c3)cn2c1=O [compound 187] | – | – | ≤ 50 nM | – | –
14 | COc1ncc(-c2ccc3ncc(Cl)c(=O)n3c2)cc1NS(=O)(=O)c1cc(F)cc(F)c1 [compound 147] | – | – | 50 to 100 nM | 50 to 100 nM | inhibition at 0.25 µM (read-out: % inhibition AKT): 80.3%; inhibition at 0.25 µM (read-out: % inhibition p70s6k): 81.3%
15 | COc1nnc(-c2ccc3ncc(Cl)c(=O)n3c2)cc1NS(=O)(=O)c1ccc(F)cc1F [compound 133] | – | – | > 250 nM | – | –
16 | COc1ncc(-c2ccc3nccc(=O)n3c2)cc1NS(=O)(=O)c1ccccc1F [compound 2] | – | – | 100 to 250 nM | > 250 nM | inhibition at 1 µM (read-out: % inhibition AKT): 94.2%; inhibition at 1 µM (read-out: % inhibition p70s6k): 50.8%
17 | COc1ncc(-c2ccc3ncc(C)c(=O)n3c2)cc1NS(=O)(=O)c1cccc(F)c1 [compound 86] | 92.8% | 88.1% | ≤ 50 nM | 100 to 250 nM | –
18 | COc1ncc(-c2ccc3ncc(OCC4COC4)c(=O)n3c2)cc1NS(=O)(=O)c1ccc(F)cc1Cl [compound 214] | – | – | ≤ 50 nM | – | –
19 | COc1ncc(-c2ccc3ncc(Cl)c(=O)n3c2)cc1NS(=O)(=O)c1cccnc1C [compound 164] | – | – | ≤ 50 nM | 50 to 100 nM | inhibition at 0.25 µM (read-out: % inhibition AKT): 79.4%; inhibition at 0.25 µM (read-out: % inhibition p70s6k): 89.6%
20 | COc1ncc(-c2ccc3nccc(=O)n3n2)cc1NS(=O)(=O)c1cccc(F)c1 [compound 79] | 63.3% | 15.9% | – | – | –
21 | COc1ncc(-c2ccc3ncc(OCC(C)(C)OC)c(=O)n3c2)cc1NS(=O)(=O)c1sc(C)nc1C [compound 209] | – | – | ≤ 50 nM | – | –
22 | COc1ncc(-c2ccc3ncc(-n4ccc(C)n4)c(=O)n3c2)cc1NS(=O)(=O)c1ccc(F)cc1Cl [compound 219] | – | – | – | – | inhibition at 0.25 µM (read-out: % inhibition AKT): 41.7%; inhibition at 0.25 µM (read-out: % inhibition p70s6k): 13.4%
23 | COc1ncc(-c2cn3c(=O)ccnc3cc2F)cc1NS(=O)(=O)c1ccc(F)cc1F [compound 112] | 40.8% | 3.6% | – | – | –
24 | COc1ncc(-c2ccc3ncc(Cl)c(=O)n3c2)cc1NS(=O)(=O)c1ccc(F)c(F)c1 [compound 145] | 94.9% | 90.5% | ≤ 50 nM | 100 to 250 nM | –
25 | Cc1ncc(-c2ccc3nccc(=O)n3c2)cc1NS(=O)(=O)c1ccc(F)cc1F [compound 7] | – | – | – | – | inhibition at 1 µM (read-out: % inhibition AKT): 81.3%; inhibition at 1 µM (read-out: % inhibition p70s6k): 50.1%
26 | CCc1ccc(S(=O)(=O)Nc2cc(-c3ccc4ncc(OCCOC)c(=O)n4c3)cnc2OC)c(F)c1 [compound 281] | – | – | ≤ 50 nM | – | –
27 | COc1ncc(-c2ccc3ncc(Cl)c(=O)n3c2)cc1NS(=O)(=O)c1cc(F)ccc1F [compound 139] | 93.7% | 88.5% | ≤ 50 nM | 50 to 100 nM | –

Row | Compound | inhibition at 0.5 µM (read-out: % inhibition AKT) | inhibition at 0.5 µM (read-out: % inhibition p70s6k) | IC50 (read-out: IC50 p-AKT) | IC50 (read-out: IC50 p-p70S6K) | other results
28 | COc1ncc(-c2ccc3nccc(=O)n3c2C)cc1NS(=O)(=O)c1ccccc1F [compound 55] | 65.7% | 42.3% | – | – | –
29 | O=c1ccnc2ccc(-c3cnc(Cl)c(NS(=O)(=O)c4ccc(F)cc4F)c3)cn12 [compound 16] | – | – | ≤ 50 nM | > 250 nM | inhibition at 1 µM (read-out: % inhibition AKT): 91.6%; inhibition at 1 µM (read-out: % inhibition p70s6k): 75.1%
30 | COCCOc1cnc2ccc(-c3cnc(OC)c(NS(=O)(=O)c4ccc(N)nc4C)c3)cn2c1=O [compound 190] | – | – | ≤ 50 nM | – | –
31 | COCCOCCOc1cnc2ccc(-c3cnc(OC)c(NS(=O)(=O)c4sc(C)nc4C)c3)cn2c1=O [compound 191] | – | – | ≤ 50 nM | – | –
32 | COCCOc1cnc2ccc(-c3cnc(OC)c(NS(=O)(=O)c4ccc(F)cc4Br)c3)cn2c1=O [compound 279] | – | – | ≤ 50 nM | – | –
33 | COc1ncc(-c2ccc3ncc(OC)c(=O)n3c2)cc1NS(=O)(=O)c1ccccc1F [compound 107] | 94.5% | 91% | ≤ 50 nM | 50 to 100 nM | –
34 | COCCOc1cnc2ccc(-c3cnc(OC)c(NS(=O)(=O)c4sc(Cl)cc4C)c3)cn2c1=O [compound 196] | – | – | ≤ 50 nM | – | –
35 | COc1ncc(-c2ccc3nccc(=O)n3c2C)cc1NS(=O)(=O)c1cccc(F)c1 [compound 53] | 68% | 40.9% | – | – | –
36 | COc1ncc(-c2ccc3ncc(OC)c(=O)n3c2)cc1NS(=O)(=O)c1ccc(F)cc1F [compound 103, 2,4-difluoro-N-(2-methoxy-5-(3-methoxy-4-oxo-4H-pyrido[1,2-a]pyrimidin-7-yl)pyridin-3-yl) benzsulfamide] | 94.5% | 89.4% | ≤ 50 nM | 50 to 100 nM | –
37 | COc1ncc(-c2ccc3nn(C)c(=O)n3c2)cc1NS(=O)(=O)c1ccc(F)cc1F [compound 234] | – | – | > 250 nM | – | –
38 | COc1ncc(-c2ccc3ncc(F)c(=O)n3c2)cc1NS(=O)(=O)c1ccccc1Cl [compound 63] | 89.5% | 92.9% | ≤ 50 nM | ≤ 50 nM | –
39 | COCCOc1cnc2ccc(-c3cnc(OC)c(NS(=O)(=O)c4sc(N)nc4C)c3)cn2c1=O [compound 183] | – | – | ≤ 50 nM | – | –
40 | COCCOc1cnc2ccc(-c3cnc(OC)c(NS(=O)(=O)c4ccc(F)c(F)c4F)c3)cn2c1=O [compound 274] | – | – | 50 to 100 nM | – | –
41 | COc1ncc(-c2cn3c(=O)ccnc3cc2F)cc1NS(=O)(=O)c1cc(F)ccc1F [compound 116] | 52.3% | 6.7% | – | – | –
42 | COc1ncc(-c2ccc3ncc(Cl)c(=O)n3c2)cc1NS(=O)(=O)c1nnc(C)s1 [compound 158] | – | – | – | – | inhibition at 0.25 µM (read-out: % inhibition AKT): -21.8%; inhibition at 0.25 µM (read-out: % inhibition p70s6k): 5.1%
43 | COc1ncc(-c2ccc3nccc(=O)n3c2)cc1NS(=O)(=O)c1ccc(C)s1 [compound 35] | 93.3% | 86% | ≤ 50 nM | ≤ 50 nM | –
44 | CCOc1cnc2ccc(-c3cnc(OC)c(NS(=O)(=O)c4ccc(F)cc4F)c3)cn2c1=O [compound 171, N-(5-(3-ethoxy-4-oxo-4H-pyrido[1,2-a]pyrimidin-7-yl)-2-methoxypyridin-3-yl)-2,4-difluorobenzsulfamide] | – | – | 50 to 100 nM | 100 to 250 nM | inhibition at 0.25 µM (read-out: % inhibition AKT): 76.3%; inhibition at 0.25 µM (read-out: % inhibition p70s6k): 73.4%
45 | COc1ncc(-c2ccc3ncc(OCCOCC(F)(F)F)c(=O)n3c2)cc1NS(=O)(=O)c1sc(C)nc1C [compound 202] | – | – | ≤ 50 nM | – | –
46 | COc1ncc(-c2ccc3ncc(Cl)c(=O)n3c2)cc1NS(=O)(=O)c1cnc(Cl)s1 [compound 160] | – | – | – | – | inhibition at 0.25 µM (read-out: % inhibition AKT): 61.9%; inhibition at 0.25 µM (read-out: % inhibition p70s6k): 71.6%
47 | COc1ncc(-c2ccc3ncc(Cl)c(=O)n3c2)cc1NS(=O)(=O)c1c(F)cccc1F [compound 148] | – | – | 50 to 100 nM | 50 to 100 nM | inhibition at 0.25 µM (read-out: % inhibition AKT): 88.9%; inhibition at 0.25 µM (read-out: % inhibition p70s6k): 86.3%
48 | COc1ncc(-c2ccc3ncc(N)c(=O)n3c2)cc1NS(=O)(=O)c1ccc(F)cc1F [compound 87, N-(5-(3-amino-4-oxo-4H-pyrido[1,2-a]pyrimidin-7-yl)-2-methoxpyridin-3-yl)-2,4-difluorobenzsulfamide] | 92.1% | 88.1% | ≤ 50 nM | 100 to 250 nM | –
49 | COc1ncc(-c2cn3c(=O)ccnc3cc2C)cc1NS(=O)(=O)c1cc(F)ccc1F [compound 131] | -27% | 4.5% | – | – | –
50 | COCCOc1cnc2ccc(-c3cnc(OC)c(NS(=O)(=O)c4cc(F)c(F)cc4Cl)c3)cn2c1=O [compound 266] | – | – | 100 to 250 nM | – | –
51 | COc1ncc(-c2ccc3ncc(N)c(=O)n3c2)cc1NS(=O)(=O)c1sc(C)nc1C [compound 93] | – | – | ≤ 50 nM | – | –
52 | COc1ncc(-c2cn3c(=O)ccnc3cc2F)cc1NS(=O)(=O)c1ccccc1F [compound 113] | -7.6% | 4.6% | – | – | –
53 | COc1ncc(-c2ccc3ncc(Cl)c(=O)n3c2)cc1NS(=O)(=O)c1ccccc1Cl [compound 136] | 95.5% | 87.2% | ≤ 50 nM | 50 to 100 nM | –

From patent US9868737B2, “Pyridino[1,2-A]pyrimidone analogue used as MTOR/P13K inhibitor” (CISEN PHARMACEUTICAL CO., LTD., priority 2014, dated 2018)
